This is an account of results in US10562848B2, “Inhibitors of TNF superfamily costimulatory interactions and methods for uses of the same” (UNIVERSITY OF MIAMI, priority 2015, dated 2020).

The target of test [1] is T1, OX40-OX40L (Homo sapiens, UniProt P23510+P43489).
T1 sequence (P43489 29-214 limits assumed): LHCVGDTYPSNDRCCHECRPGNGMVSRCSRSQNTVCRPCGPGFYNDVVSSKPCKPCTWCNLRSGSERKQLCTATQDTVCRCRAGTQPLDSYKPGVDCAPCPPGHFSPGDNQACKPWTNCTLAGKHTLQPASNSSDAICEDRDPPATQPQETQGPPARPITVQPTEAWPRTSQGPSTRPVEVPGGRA
T1 sequence (P23510 51-183 limits assumed): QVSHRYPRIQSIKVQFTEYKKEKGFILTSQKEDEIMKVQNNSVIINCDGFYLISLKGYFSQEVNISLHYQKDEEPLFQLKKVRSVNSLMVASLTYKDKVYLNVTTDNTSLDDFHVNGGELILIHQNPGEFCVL
The test is described as follows: Cell-free ELISA-type OX40 binding inhibition assay. To be noted: Table 2. The protocol: Typical concentrations used were as follows—receptors: 0.3 μg/mL for CD40, TNF-R1, and RANK; 0.6 μg/mL for BAFF-R, OX40, and 4-1BB; and 2 μg/mL for EGF-R-ligands: 0.02 μg/mL for CD40L, TNFα, and RANKL; 0.2 μg/ml for BAFF, OX40L, 4-1BBL; and 0.3 μg/mL for EGF. Assays were done in duplicate or triplicate per plate and repeated at least three times; the averaged data were normalized and used for data fitting and analysis. Binding data were fitted using the standard log inhibitor versus response model in GraphPad Prism to determine the corresponding IC50 values.
In general terms: ELISA stands for enzyme-linked immunosorbent assay.

In test [2] the test system is CD40L-induced NF-κB activation in CD40 sensor cells (HEK Blue). The test is described as follows: Inhibition of CD40L-induced NF-κB activation in CD40 sensor cells (HEK-Blue). In kind it is cell-based, human. To be noted: for IC50: Homo sapiens, CD40L 20 ng/mL, 18 h. The text has this:
Activities of the compounds of the disclosure were confirmed in cell-based assays. As a first example, TNF-R1 and CD40 expressing sensor cells (HEK-Blue; InvivoGen, San Diego, Calif.) were used as described in the literature (see Song et al., Br J Pharmacol 171:4955-4969 (2014) and Cechin et al., Steroids 85:36-43 (2014)).
Cells were maintained in DMEM at 80% confluence for each experiment. Cells were trypsinized and re-suspended in the same medium with 1% FBS and seeded on 96-well microtiter plates at a density of 1×10^5 cells/well in the absence and presence of various concentrations of compounds diluted in the same media. For ligand mediated stimulation, final concentrations of recombinant human TNFα (2 ng/mL) and CD40L (20 ng/mL) were maintained in the wells for this purpose. After 18-hour incubation at 37° C., 20 μL supernatant of each well were taken and added to another 96-well microtiter plate containing 180 μL/well of QUANTI-Blue (InvivoGen, CA). The level of SEAP was determined after 30-minute incubation at 37° C. by reading at 625 nm using a spectrophotometer. […] Data are average±SD (normalized to CD40L-activated cells alone) for n=4 independent experiments with duplicates for each condition.

Test [3] relates to CD40L-induced proliferation of human CD19+ B cells. Nature of the test: Inhibition of CD40L-induced human CD19+ B-cell proliferation (BrdU). The conditions noted are these: for IC50: B-cell. Type of test: cell-based. On the procedure:
Because CD40 stimulation is an important signal for B cell proliferation, soluble CD40L can concentration-dependently induce the proliferation of human B cells.
Inhibition of cell proliferation was determined in freshly isolated human CD19^+ B cells using the colorimetric cell proliferation ELISA BrdU kit from Roche Applied Science (Indianapolis, Ind.). B cells were isolated from the PBMC as follows. Briefly, cells were washed three times with medium (RPMI 1640) and incubated for 20 min at 4° C. with 20 μL/10^7 cells of anti-CD19 Microbeads (Miltenyi Biotech, Bergisch Gladbach, Germany), according to the MiniMacs protocol (Miltenyi Biotech). Cells were then purified using magnetic columns. […] Cells were cultured in 96 wells plates (100 μL/well) at a cell density of 2×10^5 cells/mL in IMDM medium supplemented with 5% FBS, 100 U/mL penicillin, streptomycin 100 μg/mL, insulin-transferrin-selenium-G (all materials from Invitrogen, San Diego, Calif.) and 10 […] (R&D Systems). […] After 48 h, BrdU labeling solution was added as recommended, and cells were cultivated for another 48 h. Detection of incorporated BrdU was carried out following the instructions of the ELISA BrdU kit.
Data are average±SD for n=3 independent experiments with triplicates for each condition using a standard BrdU assay (Roche).

Test [4] has as its system Balb/c skin grafts in C57BL/6 mice. Nature of the test: Skin allograft survival model. To be noted: CTLA4-Ig plus 21045 30 mg/kg daily s.c. in 20% HPβCD. In kind it is in vivo, mouse.
Description: Full-thickness ear skins from donor mice (Balb/c, Jackson Laboratory; Bar Harbor, Me.) were transplanted onto the dorsal thorax of recipient mice (C57BL/6, Jackson Laboratory) by placing them on ˜1 cm diameter graft beds and securing with bandages.

`O=C(Nc1ccc(-c2ccc(C(=O)Nc3cccc4cccc(S(=O)(=O)O)c34)cc2)cc1)c1ccc([N+](=O)[O-])cc1` [Compound 21041, 8-[(4′-[4-nitrobenzamido]biphenyl-4-yl-carbonyl)amino]naphthalene-1-sulfonic acid] displayed an IC50 in test [1] of 605 µM. Further, in test [2], the “inhibition of CD40L-induced NF-κB activation (in words)” value is recorded as “concentration-dependent inhibition” and inhibition was half-maximal at 10 µM (IC50). In addition, in test [3], the “inhibition of CD40L-induced human CD19+ B-cell proliferation (in words)” value is “concentration-dependent inhibition”.

In test [1], `COC(=O)c1ccc(C(=O)Nc2ccc(-c3ccc(C(=O)Nc4cccc5cccc(S(=O)(=O)O)c45)cc3)cc2)cc1` [Compound 21045] displayed a half-inhibitory concentration (IC50) of 135 µM. For the same compound, in test [2], the “inhibition of CD40L-induced NF-κB activation (in words)” value is listed as “concentration-dependent inhibition” and 17 µM corresponded to half-maximal inhibition (IC50). In addition, in test [3], the “inhibition of CD40L-induced human CD19+ B-cell proliferation (in words)” value was “concentration-dependent inhibition” and the IC50 was roughly 20 µM. In addition, the “mean survival time (MST) of skin grafts” value in test [4] is recorded as 15 days.

Regarding `O=C(Nc1ccc(-c2ccc(C(=O)Nc3ccc(C(=O)O)c4ccccc34)cc2)cc1)c1ccc([N+](=O)[O-])cc1` [Compound 25441], in test [1], the concentration for half-maximal inhibition (IC50) is 2.7 µM. In addition, in test [2], the “inhibition of CD40L-induced NF-κB activation (in words)” value is “concentration-dependent inhibition” and it took 9 µM to reach half-maximal inhibition (IC50). In test [3], the “inhibition of CD40L-induced human CD19+ B-cell proliferation (in words)” value is “concentration-dependent inhibition” and the IC50 is roughly 20 µM.

One may read the IC50 as the concentration at which inhibition is half-maximal.
